# Measurements from US7919101B2 (priority 2008, dated 2011).
# “And” between values parts separate entries of the source, which are not always exact repeats. Equal values may be shown once. Read-outs that look alike come from different tables or passages of the source.
# Columns and labels:
# [1] = tested on: HIV-1 93IN101 (subtype C, R5)
# Experimental: Inhibitory activity of fusion/entry inhibitors on infection by a primary HIV-1 isolate was determined as previously described (Jiang S et al. Antimicrob Agents Chemother 48:4349-4359, 2004). Peripheral blood mononuclear cells (PBMCs) were isolated from the blood of healthy donors by standard density gradient centrifugation using Histopaque-1077 (Sigma). The cells were plated in 75 cm^2 plastic flasks and incubated at 37° C. for 2 hrs. The nonadherent cells were collected and resuspended at 5×10^6 in 10 ml RPMI-1640 medium containing 10% FBS, 5 μg/ml PHA (phytohemagglutinin) and 100 U/ml IL-2 (Sigma), followed by incubation at 37° C. for 3 days. The PHA-stimulated cells were infected with a primary HIV-1 isolates at 0.01 MOI in the absence or presence of a compound at graded concentrations. Culture media were changed every 3 days. The supernatants were collected 7 days post-infection and tested for p24 antigen by ELISA as described above. The percent inhibition of p24 production and EC50 values were calculated as described above.
# (§1) 4. Synergy analysis. […] In all analyses, HIV fusion/entry inhibitors were assumed to act noncompetitively, which led to a more conservative estimate of synergy. CI values<1 and >1 indicate synergy and antagonism, respectively. Dose reductions were calculated as the compound concentrations required for inhibition of HIV-1 replication when the compound was used alone and in combination. The statistic analysis was performed by the One-Way Analysis of Variance (One-Way ANOVA) method using Origin 6.1 software.
# HIV-1 NL4-3D36G = test: Inhibition of infection by T-20-sensitive strain NL4-3D36G; type: cell-based; conditions: NL4-3D36G
# Experimental: 2. Inhibition of HIV infection as measured by luciferase assay. The inhibitory activity of fusion/entry inhibitors on HIV infection in TZM-bl cells was determined by using a luciferase assay (Wei X et al. Antimicrob. Agents Chemother. 46:1896-1905, 2002). Briefly, 50 μl of a compound at graded concentration in triplicate were incubated with an equal volume of an HIV-1 isolate at 0.01 multiplicity of infection (MOI) at 37° C. for 30 min, followed by addition of the mixture to 100 μl TZM-bl cells (1×10^5/ml) that were pre-cultured in a 96-well plate at 37° C. overnight. After further culture at 37° C. for 3 days, the cells were harvested and lyzed with 50 μl lysing reagent. The luciferase activity was analyzed using a luciferase kit (Promega Corp.) and a luminometer (Model: Ultra […], Tecan) according to the manufacture's instruction. The percent inhibition of cell fusion by a compound as well as EC50 and EC90 values were calculated using the software CalcuSyn.
# 3. Inhibition of HIV replication as measured by p24 antigen production. The inhibitory activity of fusion/entry inhibitors on HIV-1 infection as measured by p24 antigen production was determined as previously described (Zhao Q et al. AIDS Res Hum Retroviruses 18:989-997, 2002). In brief, 1×10^4 MT-2 cells were infected with an HIV-1 strain (100 TCID50) in 200 μl RPMI 1640 medium containing 10% FBS in the presence or absence of testing compounds at graded concentrations overnight. Then the culture supernatants were removed and fresh media containing no testing compounds were added. On the fourth day post-infection, 100 μl of culture supernatants were collected from each well, mixed with equal volumes of 5% Triton X-100 and assayed for p24 antigen, which was quantitated by ELISA. Briefly, wells of polystyrene plates were coated with HIV immunoglobulin (HIVIG, prepared from plasma of HIV-seropositive donors with high neutralizing titers against HIV-1IIIB), in 0.085 M carbonate-bicarbonate buffer (pH 9.6) at 4° C. overnight, followed by washes with washing buffer (0.01 M PBS containing 0.05% Tween-20) and blocking with PBS containing 1% dry fat-free milk. Virus lysates were added to the wells and incubated at 37° C. for 1 hr. […] Reactions were terminated by addition of 1N H2SO4. Absorbance at 450 nm was recorded in an ELISA reader (Ultra 384, TECAN). Recombinant protein p24, purchased from US Biological, was included for establishing standard dose response curves. Each sample was tested in triplicate. The percentage of inhibition of p24 production was calculated as previously described (Neurath A R et al. BMC Infect Dis 2:6, 2002).
# as §1
# [2] = tested on: HIV-1-mediated cell-cell fusion (H9/HIV-1IIIB cells and MT-2 cells); test: HIV-1-mediated cell-cell fusion, dye transfer assay; type: cell-based
# Experimental: The inhibitory activities of the compounds on HIV-induced cell-cell fusion were determined using a dye transfer assay (Jiang S et al. Proc SPIE 3926:212-219, 2000). Briefly, H9/HIV-1IIIB cells were pre-labeled with a fluorescent dye, Calcein AM (Molecular Probes, Inc.), and incubated with a testing compound at a graded concentration at 37° C. for 30 min in a 96-well cell culture plate. Then the CD4^+ MT-2 cells were added to the H9/HIV-1IIIB cells at a ratio of 10:1, followed by incubation at 37° C. for 2 hrs. The fused and unfused calcein-labeled HIV-1-infected cells were counted under an inverted fluorescence microscope with an eyepiece micrometer disc.
# [3] = in combination T-20:C34 (8:1) vs alone
# [4] = in combination T-20:Sifuvirtide (4:1)
# [5] = in combination T-20:Sifuvirtide (4:1) vs alone
# [6] = in combination T-20:T-1144 (4:1)
# [7] = in combination T-20:T-1144 (4:1) vs alone
# [8] = in combination T-20:T-1249 (4:1)
# [9] = in combination T-20:T-1249 (4:1) vs alone
# [10] = in combination T-20:T-1249:C34 (8:2:1)
# [11] = in combination T-20:T-1249:C34 (8:2:1) vs alone
# [12] = in combination T-20:T-1249:T-1144 (4:1:1)
# [13] = in combination T-20:T-1249:T-1144 (4:1:1) vs alone
# [14] = peptide tested alone, listed as T20
substance,measurement,setting,value
enfuvirtide,Dose reduction,"[1]; 93IN101, T-20+T-1249+T-1144 4:1:1",15.70 fold
same,Dose reduction,"[1]; 93IN101, T-20 combined with T-1144",9.30 fold
same,Dose reduction,"[1]; 93IN101, T-20 combined with T-1249",10.90 fold
same,EC50,"[1]; read-out: EC50 alone, 93IN101 (C, R5) primary isolate, peptide alone",39.9 nM
same,EC50,"[1]; read-out: EC50 in mixture, 93IN101, T-20+T-1249+T-1144 4:1:1",2.54 nM
same,EC50,"[1]; read-out: EC50 in mixture, 93IN101, T-20 combined with T-1144, ratios 4:1:1",4.29 nM
same,EC50,"[1]; read-out: EC50 in mixture, 93IN101, T-20 combined with T-1249, ratios 4:1:1",3.66 nM
same,Dose reduction,HIV-1 NL4-3D36G; T-20+T-1249+T-1144 7:5:1,18.61 fold
same,Dose reduction,HIV-1 NL4-3D36G; T-20 combined with T-1144,15.53 fold
same,Dose reduction,HIV-1 NL4-3D36G; T-20 combined with T-1249,6.48 fold
same,EC70 Concentration Mix,[2]; in combination T-20:C34 (8:1),0.427 nM
same,EC95 Concentration Mix,[2]; in combination T-20:C34 (8:1),0.682 nM
same,Potency increase at EC50,[2]; [3],61.108 fold
same,Potency increase at EC70,[2]; [3],62.834 fold
same,Potency increase at EC95,[2]; [3],65.594 fold
same,EC50,"[2]; in combination T-20:C34 (8:1), read-out: EC50 Concentration Mix",0.324 nM
same,EC90,"[2]; in combination T-20:C34 (8:1), read-out: EC90 Concentration Mix",0.564 nM
same,EC70 Concentration Mix,[2]; [4],2.356 nM
same,EC95 Concentration Mix,[2]; [4],3.537 nM
same,Potency increase at EC50,[2]; [5],8.928 fold
same,Potency increase at EC70,[2]; [5],8.863 fold
same,Potency increase at EC95,[2]; [5],8.757 fold
same,EC50,"[2]; in combination T-20:Sifuvirtide (4:1), read-out: EC50 Concentration Mix",1.85 nM
same,EC90,"[2]; in combination T-20:Sifuvirtide (4:1), read-out: EC90 Concentration Mix",3 nM
same,EC70 Concentration Mix,[2]; [6],0.033 nM
same,EC95 Concentration Mix,[2]; [6],0.052 nM
same,Potency increase at EC50,[2]; [7],791.960 fold
same,Potency increase at EC70,[2]; [7],813.030 fold
same,Potency increase at EC95,[2]; [7],860.288 fold
same,EC50,"[2]; in combination T-20:T-1144 (4:1), read-out: EC50 Concentration Mix",0.025 nM
same,EC90,"[2]; in combination T-20:T-1144 (4:1), read-out: EC90 Concentration Mix",0.043 nM
same,EC70 Concentration Mix,[2]; [8],0.051 nM
same,EC95 Concentration Mix,[2]; [8],0.082 nM
same,Potency increase at EC50,[2]; [9],521.026 fold
same,Potency increase at EC70,[2]; [9],526.078 fold
same,Potency increase at EC95,[2]; [9],545.549 fold
same,EC50,"[2]; in combination T-20:T-1249 (4:1), read-out: EC50 Concentration Mix",0.038 nM
same,EC90,"[2]; in combination T-20:T-1249 (4:1), read-out: EC90 Concentration Mix",0.068 nM
same,EC70 Concentration Mix,[2]; [10],0.070 nM
same,EC95 Concentration Mix,[2]; [10],0.108 nM
same,Potency increase at EC50,[2]; [11],366.648 fold
same,Potency increase at EC70,[2]; [11],383.286 fold
same,Potency increase at EC90,[2]; [11],more than 399 fold
same,Potency increase at EC95,[2]; [11],414.213 fold
same,Potency increase at EC90,"[2]; in combination T-20:T-1249:C34 (8:2:1) vs alone, listed as T20",399.648 fold
same,EC50,"[2]; in combination T-20:T-1249:C34 (8:2:1), read-out: EC50 Concentration Mix",0.054 nM
same,EC90,"[2]; in combination T-20:T-1249:C34 (8:2:1), read-out: EC90 Concentration Mix",0.091 nM
same,EC70 Concentration Mix,[2]; [12],0.019 nM
same,EC95 Concentration Mix,[2]; [12],0.029 nM
same,Potency increase at EC50,[2]; [13],1319.933 fold
same,Potency increase at EC70,[2]; [13],1412.105 fold
same,Potency increase at EC95,[2]; [13],1542.586 fold
same,EC50,"[2]; in combination T-20:T-1249:T-1144 (4:1:1), read-out: EC50 Concentration Mix",0.015 nM
same,EC90,"[2]; in combination T-20:T-1249:T-1144 (4:1:1), read-out: EC90 Concentration Mix",0.025 nM
same,EC70 Concentration Alone,[2]; peptide tested alone,26.830 nM and 20.882 nM
same,EC95 Concentration Alone,[2]; peptide tested alone,44.735 nM and 30.973 nM
same,EC70 Concentration Alone,[2]; [14],26.830 nM
same,EC95 Concentration Alone,[2]; [14],44.735 nM
same,EC50,"[2]; peptide tested alone, read-out: EC50 Concentration Alone",19.8 nM and 16.5 nM
same,EC90,"[2]; peptide tested alone, read-out: EC90 Concentration Alone",36.4 nM and 26.4 nM
